Source: the Kinase Knowledgebase extract (Sharma et al. 2016)

Target: EGFR (UniProt P00533)
Sequence (P00533 whole entry, looked up): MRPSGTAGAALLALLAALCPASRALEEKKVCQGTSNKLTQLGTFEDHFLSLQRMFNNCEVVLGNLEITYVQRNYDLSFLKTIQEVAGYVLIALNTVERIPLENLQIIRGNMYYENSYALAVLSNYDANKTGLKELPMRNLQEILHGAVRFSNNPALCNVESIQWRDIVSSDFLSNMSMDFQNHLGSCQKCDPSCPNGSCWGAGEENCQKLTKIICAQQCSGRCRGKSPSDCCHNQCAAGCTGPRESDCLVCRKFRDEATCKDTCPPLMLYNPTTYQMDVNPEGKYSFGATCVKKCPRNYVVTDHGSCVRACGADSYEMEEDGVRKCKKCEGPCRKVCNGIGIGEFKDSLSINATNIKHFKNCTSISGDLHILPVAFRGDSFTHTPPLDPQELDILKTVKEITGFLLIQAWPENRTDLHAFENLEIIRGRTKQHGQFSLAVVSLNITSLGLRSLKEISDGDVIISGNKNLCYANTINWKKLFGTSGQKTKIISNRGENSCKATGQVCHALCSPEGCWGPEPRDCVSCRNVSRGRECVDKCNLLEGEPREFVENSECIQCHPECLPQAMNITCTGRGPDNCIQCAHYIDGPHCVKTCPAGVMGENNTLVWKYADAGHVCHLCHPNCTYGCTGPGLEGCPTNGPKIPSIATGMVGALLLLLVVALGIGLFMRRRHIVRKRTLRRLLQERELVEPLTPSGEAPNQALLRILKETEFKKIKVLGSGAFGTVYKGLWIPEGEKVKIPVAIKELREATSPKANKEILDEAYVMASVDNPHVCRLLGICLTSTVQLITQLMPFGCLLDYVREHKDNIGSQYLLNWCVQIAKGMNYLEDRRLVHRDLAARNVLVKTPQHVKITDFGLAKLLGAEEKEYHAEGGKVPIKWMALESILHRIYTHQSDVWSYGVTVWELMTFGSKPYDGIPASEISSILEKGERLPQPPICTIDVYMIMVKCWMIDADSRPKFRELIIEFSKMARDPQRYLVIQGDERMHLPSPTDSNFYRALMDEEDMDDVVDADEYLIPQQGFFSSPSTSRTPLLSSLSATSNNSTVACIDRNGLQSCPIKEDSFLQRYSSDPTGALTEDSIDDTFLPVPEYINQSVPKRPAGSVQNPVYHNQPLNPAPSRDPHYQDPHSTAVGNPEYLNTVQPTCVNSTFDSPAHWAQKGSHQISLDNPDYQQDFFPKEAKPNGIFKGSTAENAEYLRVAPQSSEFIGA

Row | Compound | inhibition
1 | N[C@@H](Cc1cc(O)c(O)c(Sc2nc3ccccc3[nH]2)c1)C(=O)O | 11.7
2 | NCCc1cc(O)c(O)c(Sc2nc3ccccc3[nH]2)c1 | 15.1
3 | NCCC(=O)NCCc1cc(O)c(O)c(SC[C@H](N)C(=O)O)c1 | 12.1
4 | NCCC(=O)N[C@@H](Cc1cc(O)c(O)c(SC[C@H](NC(=O)CC[C@H](N)C(=O)O)C(=O)NCC(=O)O)c1)C(=O)O | 2.2
5 | NCCc1cc(O)c(O)c(SC[C@H](N)C(=O)N[C@@H](CCC(=O)O)C(=O)O)c1 | 9.3
6 | N[C@@H](Cc1cc(O)c(O)c(Sc2nc[nH]n2)c1)C(=O)O | 17
7 | N[C@@H](CSc1cc(C[C@H](N)C(=O)O)cc(O)c1O)C(=O)O | 2.9
8 | NCCc1cc(O)c(O)c(SC[C@H](N)C(=O)O)c1 | 16.3
9 | NCCC(=O)NCCc1cc(O)c(O)c(SC[C@H](NC(=O)CC[C@H](N)C(=O)O)C(=O)NCC(=O)O)c1 | 4.9
10 | NCCc1cc(O)c(O)c(SC[C@H](N)C(=O)NCC(=O)O)c1 | 19.6
11 | NCCc1cc(O)c(O)c(Sc2nc[nH]n2)c1 | 15.9
12 | NCCC(=O)NCCc1cc(O)c(O)c(SC[C@H](N)C(=O)NCC(=O)O)c1 | 7.9

Second part, the compound after the results:

Row | inhibition | Compound
13 | 0 | N[C@@H](Cc1cc(O)c(O)c(SC[C@H](N)C(=O)N[C@@H](CCC(=O)O)C(=O)O)c1)C(=O)O
14 | 2.5 | N[C@@H](Cc1cc(O)c(O)c(SC[C@H](N)C(=O)NCC(=O)O)c1)C(=O)O
15 | 0 | NCCC(=O)N[C@@H](Cc1cc(O)c(O)c(SC[C@H](N)C(=O)NCC(=O)O)c1)C(=O)O
16 | 0 | NCCC(=O)N[C@@H](Cc1cc(O)c(O)c(SC[C@H](N)C(=O)N[C@@H](CCC(=O)O)C(=O)O)c1)C(=O)O
17 | 52.1 | NCCC(=O)NCCc1cc(O)c(O)c(SC[C@H](N)C(=O)N[C@@H](CCC(=O)O)C(=O)O)c1
